Reference: the NIST ThermoML archive (doi:10.1021/je2009736)
Numbers after ± are expanded uncertainties.

How the values were obtained:
[1] = xn = mol fraction of the nth substance listed; details: 101 kPa, Liquid, Vibrating tube method
[2] = 298.15 K; 101.33 kPa; Liquid; Vibrating tube method

C[SiH]1O[SiH](C)O[SiH](C)O[SiH](C)O1 (stereo unspecified) [2,4,6,8-tetramethyl-1,3,5,7,2,4,6,8-tetroxatetrasilocane] + Cc1ccccc1C
mass density [kg/m3], [1]
Details | 288.15 K | 298.15 K | 308.15 K
x1 = 0.0499 | 896.79 ± 0.13 | 888.17 ± 0.13 | 879.45 ± 0.13
x1 = 0.1 | 908.22 ± 0.13 | 899.3 ± 0.13 | 890.28 ± 0.13
x1 = 0.15 | 918.4 ± 0.12 | 909.22 ± 0.13 | 899.95 ± 0.13
x1 = 0.2 | 927.56 ± 0.12 | 918.11 ± 0.12 | 908.59 ± 0.12
x1 = 0.25 | 935.82 ± 0.12 | 926.11 ± 0.12 | 916.33 ± 0.12
x1 = 0.2998 | 943.2 ± 0.12 | 933.25 ± 0.12 | 923.21 ± 0.12
x1 = 0.3501 | 949.98 ± 0.12 | 939.8 ± 0.12 | 929.53 ± 0.12
x1 = 0.3998 | 956.06 ± 0.11 | 945.66 ± 0.12 | 935.16 ± 0.12
x1 = 0.4496 | 961.56 ± 0.11 | 950.95 ± 0.11 | 940.25 ± 0.12
x1 = 0.4998 | 966.65 ± 0.11 | 955.84 ± 0.11 | 944.92 ± 0.12
x1 = 0.5497 | 971.24 ± 0.11 | 960.22 ± 0.11 | 949.1 ± 0.11
x1 = 0.5997 | 975.45 ± 0.11 | 964.25 ± 0.11 | 952.96 ± 0.11
x1 = 0.6496 | 979.25 ± 0.11 | 967.88 ± 0.11 | 956.36 ± 0.11
x1 = 0.7001 | 982.82 ± 0.11 | 971.27 ± 0.11 | 959.58 ± 0.11
x1 = 0.7502 | 986.05 ± 0.11 | 974.32 ± 0.11 | 962.44 ± 0.11
x1 = 0.7998 | 988.96 ± 0.11 | 977.09 ± 0.11 | 965.04 ± 0.11
x1 = 0.848 | 991.61 ± 0.11 | 979.54 ± 0.11 | 967.33 ± 0.11
x1 = 0.9002 | 994.23 ± 0.11 | 982.02 ± 0.11 | 969.65 ± 0.11

Cc1ccc(C)cc1 [1,4-dimethylbenzene]
Details | mass density [kg/m3]
[2] | 856.67 ± 0.13

Cc1ccccc1C [1,2-dimethylbenzene]
Details | mass density [kg/m3]
[2] | 875.72 ± 0.13
